67 compounds from patent US20120071496A1, “Aminopyrimidinamides As Pest Control Agents” (Bayer CropScience AG, priority 2009, published 2012) can be followed below.

Structures are written as SMILES.

Test system in the first data set: not listed separately
The experiment in a line: logP (HCOOH). The format is physicochemical. To be noted: HCOOH (formic acid); Table 2.
As usually defined, the chromatographic logP is lipophilicity estimated from chromatographic retention. A low value points to lower lipophilicity. With `CCc1ncccc1C(=O)Nc1c(NC2CC2)ncnc1-c1ccc(Cl)cc1` [1-177, N-[4-(4-Chlorophenyl)-6-cyclopropylaminopyemidin-5-yl]-2-ethylnicotinamide], the chromatographic logP came out at 1.31.
On the same count and under the same terms, in the case of `CCc1ncccc1C(=O)Nc1c(NC2CC2)ncnc1-c1ccc(Cl)cc1Cl` [1-126, N-[4-Cyclopropylamino-6-(2,4-dichlorophenyl)pyrimidin-5-yl]-2-ethylnicotinamide] it was 1.6.

The data set is the same for the next values; noted with them: HCOOH (formic acid); Table 6.
`CCc1ncccc1C(=O)Nc1c(Cl)ncnc1Nc1ccc(C(F)(F)F)cc1` [5-5, N-(4-Chloro-6-{[4-(trifluoromethyl)phenyl]amino}pyrimidin-5-yl)-2-ethylnicotinamide]: the chromatographic logP was 2.12.

The data set is the same for the next values; noted with them: Table 2.
As for `O=C(Nc1c(NC2CC2)ncnc1-c1ccc(F)cc1F)c1cccnc1CC(F)(F)F` [1-254], the “logP (HCOOH)” value was 1.83.
Still for that read-out and setting: in the case of `CCc1ncccc1C(=O)Nc1c(NC2CC2)ncnc1-c1ccc(Oc2ncc(C(F)(F)F)cc2Cl)cc1` [1-310] it was 1.84; in that of `CCCc1ncccc1C(=O)Nc1c(NC2CC2)ncnc1-c1ccc(Cn2nc(C(F)(F)F)nc2C(F)(F)F)cc1` [1-264], 1.9; in that of `Cc1ccccc1C(=O)Nc1c(NC2CC2)ncnc1-c1ccc(OC(F)(F)F)cc1` [1-72], 2.35.
On to `CCOc1ncccc1C(=O)Nc1c(NC2CC2)ncnc1-c1ccc(C#N)cc1` [1-160], for which the “logP (HCOOH)” value is 1.80.
Turning to `CCc1ncccc1C(=O)Nc1c(NC(C)C(F)(F)F)ncnc1-c1ccc(F)cc1` (centres unmarked) [1-299], the “logP (HCOOH)” value was 1.85.
For `CCc1ncccc1C(=O)Nc1c(NC2CC2)ncnc1-c1ccccc1Cl` [1-140], the “logP (HCOOH)” value was found to be 1.07.
Still for that read-out and setting: in the case of `CCc1ncccc1C(=O)Nc1c(NC2CC2)ncnc1-c1ccc(SC(F)(F)F)cc1` [1-114] it was 1.4.
Still for that read-out and setting: in the case of `CCc1ncccc1C(=O)Nc1c(NC(C)(C)C)ncnc1-c1ccc(OC(F)(F)F)cc1` [1-138] it was 2.32.
On the same count and under the same terms, in the case of `O=C(Nc1c(NC2CC2)ncnc1-c1ccc(C(F)(F)F)cc1)c1cccnc1Cl` [1-82] it was 1.94; in that of `CCc1ncccc1C(=O)Nc1c(NC2CC2)ncnc1-c1ccc(Cl)cc1C` [1-188], 1.40; in that of `Cc1ncccc1C(=O)Nc1c(NC2CC2)ncnc1-c1ccc(C(F)(F)F)cc1` [1-83], 1.43.
`CCc1ncccc1C(=O)Nc1c(NC(C)(C)C)ncnc1-c1ccc(Cl)cc1` [1-135]: the “logP (HCOOH)” value is 1.86.
Still for that read-out and setting: in the case of `CCc1ncccc1C(=O)Nc1c(NC2CC2)nc(SC)nc1-c1ccc(Cn2cnc(C(F)(F)C(F)(F)F)n2)cc1` [1-290] it was 2.47; in that of `O=C(Nc1c(NC2CC2)ncnc1-c1ccc(F)cc1)c1cccnc1Cl` [1-129], 1.27; in that of `COc1ncccc1C(=O)Nc1c(NC2CC2)ncnc1-c1ccc(Cl)cc1` [1-154], 1.83.
As for `Cc1nc(NC2CC2)c(NC(=O)c2cccnc2C)c(-c2ccc(C(F)(F)F)cc2)n1` [1-87], the “logP (HCOOH)” value was 1.27.
Same read-out and setting: in the case of `CCc1cccc(Cl)c1C(=O)Nc1c(NC2CC2)ncnc1-c1ccc(C#N)cc1` [1-321] it was 2.37; in that of `CCc1ncccc1C(=O)Nc1c(NC2CC2)nc(C)nc1-c1ccccc1` [1-275], 0.76; in that of `CCc1ncccc1C(=O)Nc1c(NC2CC2C)ncnc1-c1ccc(Cl)cc1F` (centres unmarked) [1-230], 1.72.
Still for that read-out and setting: in the case of `O=C(Nc1c(NC2CC2)ncnc1-c1ccc(Cl)cc1)c1cc(Cl)cnc1C1CC1` [1-197] it was 2.52; in that of `Cc1nc(C(F)(F)F)ccc1C(=O)Nc1c(NC2CC2)ncnc1-c1ccc(Cl)cc1` [1-199], 2.35.
On the same count and under the same terms, in the case of `CCc1ncccc1C(=O)Nc1c(NC(C)(C)C2CC2)ncnc1-c1ccc(Cl)cc1` [1-151] it was 2.22; in that of `CC(C)Nc1ncnc(-c2ccc(OC(F)(F)F)cc2)c1NC(=O)c1cccnc1Cl` [1-76], 2.05.
As for `O=C(Nc1c(NC2CC2)ncnc1-c1ccc(OC(F)(F)F)cc1)c1ccccc1` [1-112], the “logP (HCOOH)” value was 2.12.
`O=C(Nc1c(NC2CC2)ncnc1-c1ccc(F)cc1)c1cccnc1C(=O)NC1CC1` [1-262]: the “logP (HCOOH)” value was found to be 1.45.

Staying with this data set, now noted: Table 4.
On to `CCc1ncccc1C(=O)Nc1c(Br)ncnc1NC1CC1` [3-3], for which the “logP (HCOOH)” value amounted to 0.84.
The same measure, in the same setting: in the case of `O=C(Nc1c(Cl)ncnc1NC1CC1)c1cccnc1OCC(F)(F)F` [3-4] it was 2.25.

A further data set concerns Spodoptera litura third instar larvae. The experiment in a line: Test against tobacco cutworm (Spodoptera litura) larvae. The format is in vivo. The settings on record: active compound concentration 100 ppm; immersed sweet potato leaves; after 7 days.
Description: Unless not mentioned otherwise, the test solutions were prepared as follows:
Containing as solvent: Dimethylformamide, 3 parts by weight; and as emulsifier: Polyoxyethylene alkyl phenyl ether, 1 part by weight
Test Against Tobacco Cutworm (Spodoptera litura) Larvae
Leaves of sweet potato were immersed in the test solution at the appropriate concentration, and the leaves were dried in air. The leaves were then placed in a petri dish having a diameter of 9 cm, and ten Spodoptera litura at third instar larvae were released therein. The petri dishes were placed in a temperature-controlled chamber at 25° C. After 2 days and 4 days more sweet potato leaves were added. After 7 days, the number of dead larvae was counted to calculate the insecticidal activity. An insecticidal activity of 100% means that all larvae were killed, whereas an insecticidal activity of 0% means that no larva was killed.
In the case of `CCc1ncccc1C(=O)Nc1c(NC2CC2)ncnc1-c1ccc(Cl)cc1` [1-177, N-[4-(4-Chlorophenyl)-6-cyclopropylaminopyemidin-5-yl]-2-ethylnicotinamide], the insecticidal activity is given as 100%.
Compound `O=C(Nc1c(NC2CC2)ncnc1-c1ccc(Cl)cc1)c1cccnc1C1CC1` [1-236] gave an insecticidal activity of 100%.
As for `O=C(Nc1c(NC2CC2)ncnc1-c1ccc(F)cc1F)c1cccnc1CC(F)(F)F` [1-254], the insecticidal activity turned out to be 100%.
In turn, `O=C(Nc1c(NC2CC2)ncnc1-c1ccc(F)cc1F)c1cccnc1C1CC1` [1-240] came in with an insecticidal activity of 100%.
Same read-out and setting: in the case of `CCc1ncccc1C(=O)Nc1c(Cl)ncnc1Nc1ccc(F)cc1` [5-2] it was 100%; in that of `O=C(Nc1c(NC2CC2)ncnc1-c1ccc(Cn2nc(C(F)(F)F)cc2C(F)(F)F)cc1)c1cccnc1C1CC1` [1-252], 100%.
Still for that read-out and setting: in the case of `CCc1ncccc1C(=O)Nc1c(NC2CC2)ncnc1-c1ccc(Oc2ncc(C(F)(F)F)cc2Cl)cc1` [1-310] it was 100%; in that of `CCc1ncccc1C(=O)Nc1c(NC2CC2)ncnc1-c1ccc(Cn2nc(C(F)(F)F)cc2C(F)(F)F)cc1` [1-268], 100%; in that of `O=C(Nc1c(NC2CC2)ncnc1-c1ccc(Cn2nc(C(F)(F)C(F)(F)F)cc2C(F)(F)F)cc1)c1cccnc1C1CC1` [1-253], 100%.
Regarding `CCCc1ncccc1C(=O)Nc1c(NC2CC2)ncnc1-c1ccc(F)cc1F` [1-245], the insecticidal activity is listed as 100%.
As for `O=C(Nc1c(NC2CC2)nc(C(F)(F)F)nc1-c1ccc(F)cc1)c1cccnc1CC(F)(F)F` [1-324], the insecticidal activity was determined as 100%.
In turn, `CCc1ncccc1C(=O)Nc1c(NC2CC2)nc(C(F)(F)F)nc1-c1ccc(F)cc1` [1-313] had an insecticidal activity of 100%.
The same measure, in the same setting: in the case of `CCCc1ncccc1C(=O)Nc1c(NC2CC2)ncnc1-c1ccc(F)cc1` [1-238] it was 100%.
Same read-out and setting: in the case of `CCc1ncccc1C(=O)Nc1c(NC2CC2)ncnc1-c1ccc(Cc2n[nH]c(C(F)(F)C(F)(F)C(F)(F)F)n2)cc1` [1-319] it was 100%; in that of `CCc1ncccc1C(=O)Nc1c(NC2CC2)ncnc1-c1ccc(C(F)(C(F)(F)F)C(F)(F)F)cc1` [1-232], 100%.
Consider `O=C(Nc1c(NC2CC2)ncnc1-c1ccc(F)cc1)c1cccnc1C1CC1` [1-235], for which the insecticidal activity stood at 100%.
The same measure, in the same setting: in the case of `CCc1ncccc1C(=O)Nc1c(NC2CC2)ncnc1-c1ccc(Cn2ccc(C(F)(F)C(F)(F)C(F)(F)F)n2)cc1` [1-267] it was 100%; in that of `CCc1ncccc1C(=O)Nc1c(NC2CC2)ncnc1-c1ccc(Oc2nc(C(F)(F)F)cc(C(F)(F)C(F)(F)F)n2)cc1` [1-317], 100%; in that of `CCc1ncccc1C(=O)Nc1c(NC2CC2)ncnc1-c1ccc(Oc2cccc(C(F)(F)F)n2)cc1` [1-312], 100%.
`CCc1ncccc1C(=O)Nc1c(NC2CC2)nc(Cl)nc1-c1ccc(F)cc1` [1-326] returned an insecticidal activity of 100%.
For the compound `N#Cc1ccc(-c2ncnc(NC3CC3)c2NC(=O)c2cccnc2C2CC2)cc1` [1-242], the insecticidal activity turned out to be 100%.
On the same count and under the same terms, in the case of `CCc1ncccc1C(=O)Nc1c(NC2CC2)ncnc1-c1ccc(Oc2ncccc2C(F)(F)F)cc1` [1-311] it was 100%; in that of `CCCc1ncccc1C(=O)Nc1c(NC2CC2)ncnc1-c1ccc(Cn2nc(C(F)(F)F)nc2C(F)(F)F)cc1` [1-264], 100%.
`CCCc1ncccc1C(=O)Nc1c(NC2CC2)ncnc1-c1ccc(Cl)cc1` [1-239] came in with an insecticidal activity of 100%.
`CCc1ccccc1C(=O)Nc1c(NC2CC2)ncnc1-c1ccc(Cn2cnc(C(F)(F)F)n2)cc1` [1-286] returned an insecticidal activity of 100%.
Still for that read-out and setting: in the case of `CCc1ncccc1C(=O)Nc1c(NC2CC2)ncnc1-c1ccc(Cc2nc(C(F)(F)C(F)(F)C(F)(F)F)n(C)n2)cc1` [1-318] it was 100%; in that of `CCCc1ncccc1C(=O)Nc1c(NC2CC2)ncnc1-c1ccc(C#N)cc1` [1-246], 100%; in that of `CCc1ncccc1C(=O)Nc1c(NC2CC2)ncnc1-c1ccc(Cn2nc(C(F)(F)C(F)(F)F)cc2C(F)(F)C(F)(F)F)cc1` [1-269], 100%.
`CCc1ccccc1C(=O)Nc1c(NC2CC2)ncnc1-c1ccc(OC(F)(F)F)cc1` [1-257] gave an insecticidal activity of 100%.
The same measure, in the same setting: in the case of `CCc1ncccc1C(=O)Nc1c(NC2CC2)nc(C(F)(F)F)nc1-c1ccc(F)cc1F` [1-314] it was 100%; in that of `O=C(Nc1c(NC2CC2)ncnc1-c1ccc(Cl)cc1)c1cccnc1C(F)(F)C(F)(F)F` [1-241], 100%; in that of `CCc1ncccc1C(=O)Nc1c(NC2CC2)ncnc1-c1ccc(Cn2ccc(C(F)(F)C(F)(F)F)n2)cc1` [1-266], 100%.
Still for that read-out and setting: in the case of `CCCc1ncccc1C(=O)Nc1c(NC2CC2)ncnc1-c1ccc(Cl)cc1Cl` [1-244] it was 100%; in that of `O=C(Nc1c(NC2CC2)nc(Cl)nc1-c1ccc(F)cc1)c1cccnc1CC(F)(F)F` [1-325], 100%; in that of `O=C(Nc1c(NC2CC2)ncnc1-c1ccc(Cn2nc(C(F)(F)F)nc2C(F)(F)F)cc1)c1cccnc1C1CC1` [1-259], 100%.
Consider `O=C(Nc1c(NC2CC2)ncnc1-c1ccc(OC(F)(F)F)cc1)c1cccnc1C1CC1` [1-243], for which the insecticidal activity is 100%.
On to `CCc1ncccc1C(=O)Nc1c(NC2CC2)ncnc1-c1ccc(Cn2nc(C(F)(F)C(F)(F)F)cc2C(F)(F)F)cc1` [1-247], for which the insecticidal activity is given as 100%.
In turn, `O=C(Nc1c(NC2CC2)ncnc1-c1ccccc1)c1cccnc1C1CC1` [1-234] came in with an insecticidal activity of 100%.
Still for that read-out and setting: in the case of `CCc1ccccc1C(=O)Nc1c(NC2CC2)ncnc1-c1ccc(Cn2nc(C(F)(F)F)nc2C(F)(F)F)cc1` [1-265] it was 100%.
On to `CCCc1ncccc1C(=O)Nc1c(NC2CC2)ncnc1-c1ccccc1` [1-237], for which the insecticidal activity is 100%.
